What was measured:
[1] = biological target: T1, HOP-(1-543), full-length human HSP70/HSP90-organizing protein (Homo sapiens, UniProt P31948); test: 1H NMR titration (ATP H2/H8 shifts), non-linear fit; type: binding
T1 construct: gene STIP1; full-length 1-543, His6-tagged (pCold I), E. coli BL21, Ni-NTA and Superdex 200; monomer

[2] = biological target: T2, HOP-(1-543), full-length human HSP70/HSP90-organizing protein (Homo sapiens, UniProt P31948, D186A); test: ATP hydrolysis rate versus ATP concentration; type: biochemical; conditions: 25 mM HEPES-KOH pH 7.4, 5 mM MgCl2, 50 mM KCl, 37 °C
T2 construct: gene STIP1; full-length 1-543, His6-tagged (pCold I), E. coli BL21, Ni-NTA and Superdex 200; monomer
T2 sequence (P31948 whole entry D186A): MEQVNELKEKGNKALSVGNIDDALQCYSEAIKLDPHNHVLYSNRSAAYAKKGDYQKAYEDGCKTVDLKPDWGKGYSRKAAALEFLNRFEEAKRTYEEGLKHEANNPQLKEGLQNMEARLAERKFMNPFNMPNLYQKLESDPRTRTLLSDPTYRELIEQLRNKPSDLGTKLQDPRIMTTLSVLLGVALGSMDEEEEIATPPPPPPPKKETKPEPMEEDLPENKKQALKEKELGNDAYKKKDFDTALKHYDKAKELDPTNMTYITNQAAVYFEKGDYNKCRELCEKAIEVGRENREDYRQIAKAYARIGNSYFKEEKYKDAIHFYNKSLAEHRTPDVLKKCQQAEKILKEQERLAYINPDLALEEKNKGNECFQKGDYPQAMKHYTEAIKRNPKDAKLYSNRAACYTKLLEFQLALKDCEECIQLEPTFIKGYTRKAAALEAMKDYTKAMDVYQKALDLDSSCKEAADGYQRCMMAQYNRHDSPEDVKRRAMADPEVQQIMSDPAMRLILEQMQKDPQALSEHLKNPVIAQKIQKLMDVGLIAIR

[3] = biological target: T3, HOP-(1-359), TPR1-TPR2A (ATPase domain) (Homo sapiens, UniProt P31948); test: 1H NMR chemical shift change (protein amide region); type: binding; conditions: 20 mM potassium phosphate pH 6.5, 50 mM KCl, 5 mM MgCl2, 25 °C, 10-fold molar excess ATP
T3 construct: gene STIP1; TPR1-DP1-TPR2A segment, residues 1-359, His6-tagged (pCold I), E. coli BL21
T3 sequence (P31948 1-359): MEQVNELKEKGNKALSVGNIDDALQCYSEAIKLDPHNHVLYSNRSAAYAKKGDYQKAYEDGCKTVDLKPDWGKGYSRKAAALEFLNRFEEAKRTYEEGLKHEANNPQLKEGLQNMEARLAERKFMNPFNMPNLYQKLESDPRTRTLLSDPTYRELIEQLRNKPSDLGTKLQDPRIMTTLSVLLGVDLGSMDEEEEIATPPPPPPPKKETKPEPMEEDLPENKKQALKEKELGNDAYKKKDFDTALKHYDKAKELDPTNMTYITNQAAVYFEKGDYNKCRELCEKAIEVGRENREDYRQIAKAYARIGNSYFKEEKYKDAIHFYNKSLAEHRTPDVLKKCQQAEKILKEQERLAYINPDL

[4] = biological target: T1, HOP-(1-543), full-length human HSP70/HSP90-organizing protein; test: protection from TPCK-trypsin digestion, SDS-PAGE; type: binding; conditions: 25 mM HEPES-KOH pH 7.4, 5 mM MgCl2, 100 mM KCl, 37 °C, 30 min

T1 sequence (P31948 whole entry): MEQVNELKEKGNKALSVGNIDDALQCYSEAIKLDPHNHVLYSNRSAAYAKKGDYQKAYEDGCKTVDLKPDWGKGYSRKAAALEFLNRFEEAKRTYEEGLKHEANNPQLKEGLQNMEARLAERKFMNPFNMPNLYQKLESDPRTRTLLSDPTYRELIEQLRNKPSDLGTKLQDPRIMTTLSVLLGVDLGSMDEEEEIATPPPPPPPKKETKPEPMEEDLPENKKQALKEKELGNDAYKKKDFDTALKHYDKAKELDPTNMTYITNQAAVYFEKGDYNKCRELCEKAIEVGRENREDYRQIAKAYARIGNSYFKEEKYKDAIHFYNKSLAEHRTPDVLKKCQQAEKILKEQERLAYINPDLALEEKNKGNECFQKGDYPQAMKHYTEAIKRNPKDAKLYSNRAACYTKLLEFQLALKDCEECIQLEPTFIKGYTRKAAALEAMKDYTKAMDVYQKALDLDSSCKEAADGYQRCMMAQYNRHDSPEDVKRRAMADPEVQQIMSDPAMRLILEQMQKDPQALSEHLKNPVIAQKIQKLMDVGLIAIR

SMILES	Kd [1]	ATP hydrolysis rate versus ATP concentration [2]	1H NMR chemical shift change (protein amide region) [3]	protection efficiency at 5 mM [4]
Nc1ncnc2c1ncn2[C@@H]1O[C@H](COP(=O)(O)OP(=O)(O)OP(=O)(O)O)[C@@H](O)[C@H]1O [ATP]	350 µM	this mutation caused no significant change in ATPase activity	These data indicated that ATP directly binds the ATPase domain of HOP	–
Nc1ncnc2c1ncn2[C@@H]1O[C@H](COP(=O)(O)OP(=O)(O)O)[C@@H](O)[C@H]1O [ADP]	–	–	–	31.0 ± 8.9%
Nc1ncnc2c1ncn2[C@@H]1O[C@H](COP(=O)(O)OP(=O)(O)NP(=O)(O)O)[C@@H](O)[C@H]1O [AMP-PNP, adenosine 5′-(β,γ-imino)triphosphate]	–	–	–	28.6 ± 10.1%

Source: paper PMC3975032, “ATPase Activity and ATP-dependent Conformational Change in the Co-chaperone HSP70/HSP90-organizing Protein (HOP)” (The Journal of Biological Chemistry, 2014)
